Assay results reported in the kinase profiling compilation of Christmann-Franck et al. (2016).
Values joined by “and” are separate entries in the source; they are usually repeats but may differ in a detail not shown here. Equal values may be shown once.

Columns and labels:
Experiment in all cases: radiometric filter-binding kinase assay, Kinase HotSpot
Details in all cases: compound 0.5 µM; ATP 10 µM
[1] = molecular target: EPHA6 (human) (UniProt Q9UF33)
[2] = molecular target: TYK2 JH1 catalytic (human) (UniProt P29597)
[3] = molecular target: PDPK1 (human) (UniProt O15530)
PDPK1 (human), sequence (O15530 whole entry, looked up): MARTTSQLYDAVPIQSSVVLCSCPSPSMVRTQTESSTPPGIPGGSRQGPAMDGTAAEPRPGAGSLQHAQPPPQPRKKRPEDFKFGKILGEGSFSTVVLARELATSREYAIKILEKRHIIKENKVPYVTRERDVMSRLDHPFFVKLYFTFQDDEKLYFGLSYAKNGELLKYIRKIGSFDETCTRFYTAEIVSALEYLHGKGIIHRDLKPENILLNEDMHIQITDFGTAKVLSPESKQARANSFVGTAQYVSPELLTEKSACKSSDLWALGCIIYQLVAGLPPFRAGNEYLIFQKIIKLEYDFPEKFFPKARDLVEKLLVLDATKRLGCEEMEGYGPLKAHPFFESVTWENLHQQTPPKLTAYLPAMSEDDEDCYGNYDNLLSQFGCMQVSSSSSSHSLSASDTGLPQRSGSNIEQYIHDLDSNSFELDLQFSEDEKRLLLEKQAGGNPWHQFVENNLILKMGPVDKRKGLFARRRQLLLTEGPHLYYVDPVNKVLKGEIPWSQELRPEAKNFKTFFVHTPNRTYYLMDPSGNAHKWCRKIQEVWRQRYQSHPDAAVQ

[4] = molecular target: STK16 (human) (UniProt O75716)
[5] = molecular target: KDR (human) (UniProt P35968)
[6] = molecular target: RPS6KB1 (human) (UniProt P23443)
[7] = test system: SGK1 (human), O00141 [S422D]
[8] = molecular target: MARK1 (human) (UniProt Q9P0L2)
[9] = molecular target: YES1 (human) (UniProt P07947)
[10] = molecular target: MAPK14 (human) (UniProt Q16539)
[11] = molecular target: MKNK2 (human) (UniProt Q9HBH9)
[12] = molecular target: PRKG1 (human) (UniProt Q13976)
PRKG1 (human), sequence (Q13976 whole entry, looked up): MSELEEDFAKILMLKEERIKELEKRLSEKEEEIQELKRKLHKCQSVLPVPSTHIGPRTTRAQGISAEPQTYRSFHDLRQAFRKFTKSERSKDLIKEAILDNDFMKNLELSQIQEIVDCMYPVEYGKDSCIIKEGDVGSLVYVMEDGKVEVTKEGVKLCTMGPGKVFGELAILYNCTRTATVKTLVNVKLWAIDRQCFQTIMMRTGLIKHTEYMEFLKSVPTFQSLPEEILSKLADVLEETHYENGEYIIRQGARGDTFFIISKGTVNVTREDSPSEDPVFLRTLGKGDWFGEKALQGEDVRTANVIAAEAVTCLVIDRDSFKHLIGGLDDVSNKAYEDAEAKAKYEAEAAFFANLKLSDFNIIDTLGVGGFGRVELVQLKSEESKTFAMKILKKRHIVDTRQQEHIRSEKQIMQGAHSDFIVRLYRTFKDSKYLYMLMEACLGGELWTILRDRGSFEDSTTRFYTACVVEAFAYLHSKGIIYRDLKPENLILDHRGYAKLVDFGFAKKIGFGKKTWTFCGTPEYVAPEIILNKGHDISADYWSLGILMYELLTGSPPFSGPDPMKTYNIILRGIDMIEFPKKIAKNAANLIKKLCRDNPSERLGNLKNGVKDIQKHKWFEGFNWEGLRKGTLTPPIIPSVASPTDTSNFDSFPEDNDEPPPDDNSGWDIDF

[13] = molecular target: DYRK3 (human) (UniProt O43781)
[14] = molecular target: RET (human) (UniProt P07949)
[15] = molecular target: BRAF (human) (UniProt P15056)
[16] = molecular target: MYO3B (human) (UniProt Q8WXR4)
[17] = molecular target: STK38 (human) (UniProt Q15208)
[18] = molecular target: TGFBR2 (human) (UniProt P37173)
[19] = molecular target: KIT (human) (UniProt P10721)
[20] = molecular target: PHKG2 (human) (UniProt P15735)
[21] = molecular target: PRKD3 (human) (UniProt O94806)
[22] = molecular target: CHEK1 (human) (UniProt O14757)
[23] = molecular target: EPHB2 (human) (UniProt P29323)
EPHB2 (human), sequence (P29323 whole entry, looked up): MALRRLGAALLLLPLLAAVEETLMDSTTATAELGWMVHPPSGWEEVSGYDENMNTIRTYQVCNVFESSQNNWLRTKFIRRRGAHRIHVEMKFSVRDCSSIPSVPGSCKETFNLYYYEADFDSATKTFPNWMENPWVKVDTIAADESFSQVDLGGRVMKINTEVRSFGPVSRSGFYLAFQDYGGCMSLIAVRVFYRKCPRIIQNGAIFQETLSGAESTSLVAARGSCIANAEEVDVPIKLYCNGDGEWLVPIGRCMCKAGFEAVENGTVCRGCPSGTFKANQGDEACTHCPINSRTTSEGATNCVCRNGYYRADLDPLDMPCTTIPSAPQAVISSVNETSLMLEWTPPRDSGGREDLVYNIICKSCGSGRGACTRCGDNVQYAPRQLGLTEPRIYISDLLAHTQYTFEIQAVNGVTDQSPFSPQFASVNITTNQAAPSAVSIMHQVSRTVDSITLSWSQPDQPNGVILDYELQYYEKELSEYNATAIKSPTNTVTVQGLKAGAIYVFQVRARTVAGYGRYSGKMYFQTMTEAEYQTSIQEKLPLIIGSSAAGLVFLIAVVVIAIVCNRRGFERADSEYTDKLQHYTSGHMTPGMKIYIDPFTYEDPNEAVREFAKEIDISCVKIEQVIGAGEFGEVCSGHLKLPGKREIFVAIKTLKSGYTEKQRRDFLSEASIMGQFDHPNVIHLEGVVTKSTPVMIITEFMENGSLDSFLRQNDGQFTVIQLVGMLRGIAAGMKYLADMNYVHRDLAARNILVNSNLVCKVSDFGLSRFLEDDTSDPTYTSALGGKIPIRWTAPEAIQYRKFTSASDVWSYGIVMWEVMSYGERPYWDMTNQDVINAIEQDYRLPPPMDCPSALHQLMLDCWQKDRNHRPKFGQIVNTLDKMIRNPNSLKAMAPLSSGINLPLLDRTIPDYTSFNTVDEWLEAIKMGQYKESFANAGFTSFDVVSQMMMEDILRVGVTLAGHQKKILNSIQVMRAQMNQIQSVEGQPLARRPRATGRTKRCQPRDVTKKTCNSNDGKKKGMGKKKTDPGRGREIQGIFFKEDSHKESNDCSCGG

[24] = molecular target: CLK4 (human) (UniProt Q9HAZ1)
[25] = molecular target: CAMK2B (human) (UniProt Q13554)
[26] = molecular target: TLK2 (human) (UniProt Q86UE8)
[27] = molecular target: PRKCA (human) (UniProt P17252)
[28] = molecular target: MAPKAPK5 (human) (UniProt Q8IW41)
MAPKAPK5 (human), sequence (Q8IW41 whole entry, looked up): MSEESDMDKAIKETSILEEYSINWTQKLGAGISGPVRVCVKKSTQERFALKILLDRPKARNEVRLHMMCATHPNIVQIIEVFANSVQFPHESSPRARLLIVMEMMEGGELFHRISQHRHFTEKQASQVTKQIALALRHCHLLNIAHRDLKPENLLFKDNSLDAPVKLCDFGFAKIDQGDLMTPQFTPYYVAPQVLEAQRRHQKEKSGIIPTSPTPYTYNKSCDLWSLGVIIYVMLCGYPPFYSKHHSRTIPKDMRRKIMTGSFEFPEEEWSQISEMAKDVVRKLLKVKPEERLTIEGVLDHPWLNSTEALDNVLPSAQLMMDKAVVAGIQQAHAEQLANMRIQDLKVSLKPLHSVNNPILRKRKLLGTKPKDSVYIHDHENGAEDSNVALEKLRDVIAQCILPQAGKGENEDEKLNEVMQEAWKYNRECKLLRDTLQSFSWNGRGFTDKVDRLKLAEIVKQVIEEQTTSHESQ

[29] = molecular target: ULK3 (human) (UniProt Q6PHR2)
[30] = molecular target: JAK1 JH1 catalytic (human) (UniProt P23458)
JAK1 JH1 catalytic (human), sequence (P23458 whole entry, looked up): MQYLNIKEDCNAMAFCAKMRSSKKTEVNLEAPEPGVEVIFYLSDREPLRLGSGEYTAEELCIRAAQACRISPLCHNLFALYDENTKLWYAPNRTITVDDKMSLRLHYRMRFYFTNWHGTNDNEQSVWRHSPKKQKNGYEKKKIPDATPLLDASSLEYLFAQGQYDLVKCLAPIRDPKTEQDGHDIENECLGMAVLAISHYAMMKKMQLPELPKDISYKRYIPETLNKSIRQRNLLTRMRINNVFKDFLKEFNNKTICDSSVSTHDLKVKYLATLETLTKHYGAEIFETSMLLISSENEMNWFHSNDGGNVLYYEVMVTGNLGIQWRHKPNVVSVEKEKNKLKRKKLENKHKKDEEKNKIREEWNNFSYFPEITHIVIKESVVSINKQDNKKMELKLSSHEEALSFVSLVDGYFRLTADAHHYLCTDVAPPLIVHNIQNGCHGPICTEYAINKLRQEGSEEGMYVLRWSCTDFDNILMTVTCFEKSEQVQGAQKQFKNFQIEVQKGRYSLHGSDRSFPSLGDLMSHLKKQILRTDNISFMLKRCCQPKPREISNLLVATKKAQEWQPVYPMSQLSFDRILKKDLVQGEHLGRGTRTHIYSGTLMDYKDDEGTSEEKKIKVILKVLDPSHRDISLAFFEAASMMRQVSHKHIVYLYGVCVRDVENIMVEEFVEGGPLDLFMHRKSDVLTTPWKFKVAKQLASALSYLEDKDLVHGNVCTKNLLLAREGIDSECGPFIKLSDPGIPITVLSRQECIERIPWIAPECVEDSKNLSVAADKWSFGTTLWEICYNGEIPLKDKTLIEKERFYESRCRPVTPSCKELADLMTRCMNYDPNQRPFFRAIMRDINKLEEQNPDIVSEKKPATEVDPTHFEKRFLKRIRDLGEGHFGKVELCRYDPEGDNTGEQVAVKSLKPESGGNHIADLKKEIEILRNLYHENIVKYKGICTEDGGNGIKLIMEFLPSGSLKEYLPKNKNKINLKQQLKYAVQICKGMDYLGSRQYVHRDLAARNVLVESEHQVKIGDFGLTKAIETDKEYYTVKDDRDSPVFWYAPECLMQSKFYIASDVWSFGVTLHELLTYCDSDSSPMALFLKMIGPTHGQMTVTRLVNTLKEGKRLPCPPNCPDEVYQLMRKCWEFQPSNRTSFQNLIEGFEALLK

[31] = molecular target: CDK3 CCNE1 (human) (UniProt Q00526+P24864)
[32] = molecular target: PAK6 (human) (UniProt Q9NQU5)
[33] = molecular target: PTK2 (human) (UniProt Q05397)
PTK2 (human), sequence (Q05397 whole entry, looked up): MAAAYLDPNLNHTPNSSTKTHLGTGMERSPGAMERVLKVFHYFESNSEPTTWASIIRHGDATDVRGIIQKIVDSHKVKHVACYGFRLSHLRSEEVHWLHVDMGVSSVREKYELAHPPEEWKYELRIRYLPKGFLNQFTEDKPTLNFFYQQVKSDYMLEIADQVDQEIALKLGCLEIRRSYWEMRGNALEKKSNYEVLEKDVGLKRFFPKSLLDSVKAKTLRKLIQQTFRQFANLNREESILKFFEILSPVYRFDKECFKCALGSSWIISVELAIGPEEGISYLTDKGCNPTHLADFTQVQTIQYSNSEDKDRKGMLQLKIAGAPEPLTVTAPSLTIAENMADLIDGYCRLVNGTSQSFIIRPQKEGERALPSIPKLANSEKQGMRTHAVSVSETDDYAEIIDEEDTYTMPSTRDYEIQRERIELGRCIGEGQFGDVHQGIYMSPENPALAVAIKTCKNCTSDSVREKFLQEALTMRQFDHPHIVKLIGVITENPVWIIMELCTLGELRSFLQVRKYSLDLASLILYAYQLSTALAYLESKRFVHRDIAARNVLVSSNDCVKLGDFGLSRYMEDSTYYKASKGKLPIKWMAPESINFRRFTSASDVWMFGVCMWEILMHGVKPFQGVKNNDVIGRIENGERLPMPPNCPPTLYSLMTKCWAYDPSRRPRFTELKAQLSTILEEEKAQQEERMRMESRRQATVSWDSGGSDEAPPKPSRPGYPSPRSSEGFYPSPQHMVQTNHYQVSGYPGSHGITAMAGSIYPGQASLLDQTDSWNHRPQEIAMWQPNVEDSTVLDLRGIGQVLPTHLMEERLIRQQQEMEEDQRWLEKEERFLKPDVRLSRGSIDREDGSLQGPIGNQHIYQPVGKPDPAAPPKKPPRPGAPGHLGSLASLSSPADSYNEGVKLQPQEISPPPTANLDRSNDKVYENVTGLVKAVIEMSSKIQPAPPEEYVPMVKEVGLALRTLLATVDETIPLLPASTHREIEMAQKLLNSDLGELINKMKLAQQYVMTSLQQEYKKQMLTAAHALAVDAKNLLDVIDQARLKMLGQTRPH

[34] = molecular target: RPS6KB2 (human) (UniProt Q9UBS0)
[35] = molecular target: DYRK1A (human) (UniProt Q13627)
[36] = molecular target: CSNK2A1 (human) (UniProt P68400)
[37] = molecular target: TAOK2 (human) (UniProt Q9UL54)
[38] = molecular target: CSNK1A1 (human) (UniProt P48729)
[39] = molecular target: LCK (human) (UniProt P06239)
[40] = molecular target: EGFR (human) (UniProt P00533)

Q: For `O=c1cc(N2CCOCC2)oc2c(-c3ccccc3)cccc12`, which residual activity [1] is on record?
A: 87%

Q: And the residual activity [2]?
A: 103%

Q: And the residual activity [3]?
A: 104%

Q: What about the residual activity [4] of the same compound?
A: 97.5%

Q: What about the residual activity [5] of the same compound?
A: 87.2%

Q: What about the residual activity [6] of the same compound?
A: 101%

Q: And the residual activity [7]?
A: 101%

Q: And the residual activity [8]?
A: 100%

Q: And the residual activity [9]?
A: 101%

Q: And the residual activity [10]?
A: 87.7%

Q: And the residual activity [11]?
A: 103%

Q: And the residual activity [12]?
A: 104% and 105%

Q: What about the residual activity [13] of the same compound?
A: 100%

Q: What about the residual activity [14] of the same compound?
A: 99.2%

Q: What about the residual activity [15] of the same compound?
A: 95.9%

Q: And the residual activity [16]?
A: 104%

Q: What about the residual activity [17] of the same compound?
A: 103%

Q: And the residual activity [18]?
A: 142%

Q: What about the residual activity [19] of the same compound?
A: 92.9%

Q: And the residual activity [20]?
A: 97.2%

Q: And the residual activity [21]?
A: 92.5%

Q: And the residual activity [22]?
A: 104%

Q: What about the residual activity [23] of the same compound?
A: 99.8%

Q: What about the residual activity [24] of the same compound?
A: 89.1%

Q: What about the residual activity [25] of the same compound?
A: 110%

Q: And the residual activity [26]?
A: 83.2%

Q: And the residual activity [27]?
A: 97.5%

Q: And the residual activity [28]?
A: 94.1%

Q: And the residual activity [29]?
A: 103%

Q: And the residual activity [30]?
A: 108%

Q: And the residual activity [31]?
A: 89.6%

Q: And the residual activity [32]?
A: 115%

Q: What about the residual activity [33] of the same compound?
A: 103%

Q: And the residual activity [34]?
A: 94.9%

Q: What about the residual activity [35] of the same compound?
A: 97.3%

Q: And the residual activity [36]?
A: 64.8%

Q: Which residual activity [1] does the source give for `Nc1ncnc2c1cnn2-c1ccccc1` here?
A: 83.2%

Q: What about the residual activity [2] of the same compound?
A: 86.7%

Q: What about the residual activity [3] of the same compound?
A: 104%

Q: What about the residual activity [4] of the same compound?
A: 94.3%

Q: And the residual activity [5]?
A: 98.8%

Q: And the residual activity [6]?
A: 103%

Q: And the residual activity [7]?
A: 90.9%

Q: And the residual activity [8]?
A: 94.8%

Q: And the residual activity [9]?
A: 93.7%

Q: What about the residual activity [10] of the same compound?
A: 89.2%

Q: What about the residual activity [11] of the same compound?
A: 72.7%

Q: What about the residual activity [12] of the same compound?
A: 107% and 91.3%

Q: And the residual activity [13]?
A: 96.8%

Q: And the residual activity [14]?
A: 98.2%

Q: And the residual activity [15]?
A: 93.6%

Q: And the residual activity [16]?
A: 93.4%

Q: What about the residual activity [17] of the same compound?
A: 98.6%

Q: What about the residual activity [18] of the same compound?
A: 105%

Q: What about the residual activity [19] of the same compound?
A: 89.5%

Q: What about the residual activity [20] of the same compound?
A: 94.1%

Q: What about the residual activity [37] of the same compound?
A: 93%

Q: And the residual activity [38]?
A: 79.8%

Q: And the residual activity [21]?
A: 87.3%

Q: And the residual activity [22]?
A: 92.5%

Q: And the residual activity [23]?
A: 96.2%

Q: What about the residual activity [24] of the same compound?
A: 76.7%

Q: And the residual activity [25]?
A: 97.8%

Q: And the residual activity [26]?
A: 110%

Q: And the residual activity [27]?
A: 103%

Q: What about the residual activity [28] of the same compound?
A: 87.1%

Q: What about the residual activity [29] of the same compound?
A: 98.9%

Q: What about the residual activity [39] of the same compound?
A: 95.5%

Q: What about the residual activity [30] of the same compound?
A: 98.1%

Q: What about the residual activity [40] of the same compound?
A: 73%

Q: What about the residual activity [31] of the same compound?
A: 96.2%

Q: What about the residual activity [32] of the same compound?
A: 100%

Q: What about the residual activity [33] of the same compound?
A: 94.9%

Q: And the residual activity [34]?
A: 87.5%

Q: What about the residual activity [35] of the same compound?
A: 96.8%

Q: What about the residual activity [36] of the same compound?
A: 94.4%
